Data on two molecules can be found in patent publication US20190300927A1, “METABOLIC ASSAY FOR BACTERIAL GROWTH AND GRAM TYPING” (SELUX DIAGNOSTICS, INC., priority 2018, published 2019).

The test system of test [1] is clinical isolates of Pseudomonas aeruginosa. In words: Resorufin fluorescence after 4 hour incubation with P. aeruginosa clinical isolates (FIG. 3). It is filed as cell-based. To be noted: resorufin alone 100 μM, no methylene blue, Mueller-Hinton broth, Ex560/Em590. How it is done: FIG. 3 Experiment: Four clinical isolates of P aeruginosa were inoculated into MHB at a 1:200 dilution from a 0.5 McFarland standard. Resorufin was added to each well at a 100 μM final concentration. Plates were incubated shaking for 4 hours at 37° C. Fluorescence was read at Ex560/Em590. Uninoculated MIHB with resorufin was included as a negative control.

For another test, the system named is gram-positive organisms. Conditions: Fung and Miller 1973; cited from earlier work.
The next test deals with gram-negative organisms. Conditions: Fung and Miller 1973; cited from earlier work.

On to `O=c1ccc2nc3ccc(O)cc3oc-2c1` [resorufin], for which the “remaining resorufin fluorescence after P. aeruginosa growth” value in test [1] is “does not eliminate the resorufin fluorescence”. On to `CN(C)c1ccc2nc3ccc(=[N+](C)C)cc-3sc2c1` [methylene blue, Methylene blue], for which the “effect of high concentrations on gram-positive organisms” value in the test on gram-positive organisms is “inhibitory”. For the same molecule, the “effect of high concentrations on gram-negative organisms” value with gram-negative organisms was “tolerated”.
